As a reminder, the EC50 is the midpoint of the concentration-response curve. Read a low EC50 as greater potency.

SMILES strings stand for the structures.

This test has as its target T1, ERR1 (also known as ERR-α or ERR-1) (Homo sapiens, UniProt P11474).
T1 sequence (P11474 193-421 limits assumed): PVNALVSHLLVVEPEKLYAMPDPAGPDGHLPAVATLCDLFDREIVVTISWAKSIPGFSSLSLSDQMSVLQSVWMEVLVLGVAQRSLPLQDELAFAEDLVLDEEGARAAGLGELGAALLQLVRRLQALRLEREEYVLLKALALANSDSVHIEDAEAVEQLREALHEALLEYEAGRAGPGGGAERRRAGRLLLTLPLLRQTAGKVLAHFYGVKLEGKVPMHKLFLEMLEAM
In words: TR-FRET assay (disruption of co-activator peptide binding to ERR1 LBD). Type of test: biochemical. To be noted: 6 nM 6His-ERR1LBD, 6 nM GST-SRC-2 peptide; average of 3 independent experiments. The method, boiled down: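 His-tagged ERR1 ligand-binding domain and GST-labelled SRC-2 peptide, each 6 nM, equilibrated at 25° C for 4-18 h in Tris pH 8/Hepes/KCl/DTT/delipidated BSA buffer. Compound-induced loss of co-activator binding read as Eu cryptate→XL665 energy transfer; values from hyperbolic curve fits averaged over 3 independent runs.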
`NCCN1C(=O)S/C(=C\c2ccc3c(cnn3Cc3ccc(Cl)cc3C(F)(F)F)c2)C1=O` [Compound 49, 3-(2-Aminoethyl)-(5Z)-5-({1-[4-chloro-2-(trifluoromethyl)benzyl]-1H-indazol-5-yl}methylidene)-1,3-thiazolidine-2,4-dione] displayed a concentration for a half-maximal effect (EC50) of 25 nM.

`COC(=O)[C@@H](COC(C)(C)C)N1C(=O)S/C(=C\c2ccc3c(cnn3Cc3ccc(Cl)cc3C(F)(F)F)c2)C1=O` [Compound 212, Methyl (2R)-3-tert-butoxy-2-[(5Z)-5-({1-[4-chloro-2-(trifluoromethyl)benzyl]-1H-indazol-5-yl}methylidene)-2,4-dioxo-1,3-thiazolidin-3-yl]propanoate] displayed a concentration for a half-maximal effect (EC50) of 250 nM.

`CN(C)CCCN1C(=O)S/C(=C\c2ccc3c(ccn3Cc3ccc(C#N)cc3C(F)(F)F)c2)C1=O` [Compound 247, 4-({5-[(Z)-{3-[3-(Dimethylamino)propyl]-2,4-dioxo-1,3-thiazolidin-5-ylidene}methyl]-1H-indol-1-yl}methyl)-3-(trifluoromethyl)benzonitrile] gave a concentration giving a half-maximal response (EC50) of 300 nM.

`CN1CCC[C@H]1CN1C(=O)S/C(=C\c2ccc3c(c2)c(Cl)nn3Cc2ccc(Cl)cc2C(F)(F)F)C1=O` [Compound 301, (5Z)-5-({3-Chloro-1-[4-chloro-2-(trifluoromethyl)benzyl]-1H-indazol-5-yl}methylidene)-3-{[(2S)-1-methylpyrrolidin-2-yl]methyl}-1,3-thiazolidine-2,4-dione] came in with an EC50 of 15 nM.

Take `O=C(O)c1cccc(CN2C(=O)S/C(=C\c3ccc4c(cnn4Cc4ccc(Cl)cc4C(F)(F)F)c3)C2=O)c1` [Compound 378, 3-{[(5Z)-5-({1-[4-Chloro-2-(trifluoromethyl)benzyl]-1H-indazol-5-yl}methylidene)-2,4-dioxo-1,3-thiazolidin-3-yl]methyl}benzoic acid]: the response was half-maximal at 66 nM (EC50).

`COc1ccc(Cn2nc(OC)c3cc(/C=C4\SC(=O)N(CCN5CCOCC5)C4=O)ccc32)c(C(F)(F)F)c1` [Compound 25, (5Z)-5-({3-Methoxy-1-[4-methoxy-2-(trifluoromethyl)benzyl]-1H-indazol-5-yl}methylidene)-3-(2-morpholin-4-ylethyl)-1,3-thiazolidine-2,4-dione]: the EC50 was 16 nM.

The molecule `[2H]C([2H])([2H])N1CC[C@@H](N2C(=O)S/C(=C\c3ccc4c(cnn4Cc4ccc(Cl)cc4C(F)(F)F)c3)C2=O)[C@H](F)C1` (relative stereo) [Compound 329, (5Z)-5-({1-[4-Chloro-2-(trifluoromethyl)benzyl]-1H-indazol-5-yl}methylidene)-3-[trans-3-fluoro-1-(1,1,1-d3)-methylpiperidin-4-yl]-1,3-thiazolidine-2,4-dione] displayed a 50% effective concentration (EC50) of 15 nM.

In the case of `Cn1cnc(CN2C(=O)S/C(=C\c3ccc4c(cnn4Cc4ccc(Cl)cc4C(F)(F)F)c3)C2=O)c1` [Compound 402, (5Z)-5-({1-[4-Chloro-2-(trifluoromethyl)benzyl]-1H-indazol-5-yl}methylidene)-3-[(1-methyl-1H-imidazol-4-yl)methyl]-1,3-thiazolidine-2,4-dione], the EC50 is 48 nM.

Take `COC[C@@H](N)CN1C(=O)S/C(=C\c2ccc3c(cnn3Cc3ccc(Cl)cc3C(F)(F)F)c2)C1=O` [Compound 168, (5Z)-3-[(2S)-2-Amino-3-methoxypropyl]-5-({1-[4-chloro-2-(trifluoromethyl)benzyl]-1H-indazol-5-yl}methylidene)-1,3-thiazolidine-2,4-dione]: a half-maximal response (EC50) required 29 nM.

The molecule `O=C1S/C(=C\c2ccc3c(cnn3Cc3ccc(Cl)cc3C(F)(F)F)c2)C(=O)N1C[C@@H]1CN(CCO)CCO1` [Compound 187, (5Z)-5-({1-[4-Chloro-2-(trifluoromethyl)benzyl]-1H-indazol-5-yl}methylidene)-3-{[(2S)-4-(2-hydroxyethyl)morpholin-2-yl]methyl}-1,3-thiazolidine-2,4-dione] gave a 50% effective concentration (EC50) of 27 nM.

`O=C(NN1C(=O)S/C(=C\c2ccc3c(cnn3Cc3ccc(C(F)(F)F)cc3C(F)(F)F)c2)C1=O)C1CC1` [Compound 372, N-[(5Z)-5-({1-[2,4-Bis(trifluoromethyl)benzyl]-1H-indazol-5-yl}methylidene)-2,4-dioxo-1,3-thiazolidin-3-yl]cyclopropanecarboxamide]: the half-maximal effective concentration (EC50) came out at 11 nM.

In turn, `O=C1S/C(=C\c2ccc3c(cnn3Cc3ccc(Cl)cc3C(F)(F)F)c2)C(=O)N1CCc1ccncc1` [Compound 108, (5Z)-5-({1-[4-Chloro-2-(trifluoromethyl)benzyl]-1H-indazol-5-yl}methylidene)-3-(2-pyridin-4-ylethyl)-1,3-thiazolidine-2,4-dione] showed an EC50 of 102 nM.

`CCOC(=O)C(Cc1ccccn1)N1C(=O)S/C(=C\c2ccc3c(cnn3Cc3ccc(Cl)cc3C(F)(F)F)c2)C1=O` (stereo not shown) [Compound 211, Ethyl 2-[(5Z)-5-({1-[4-chloro-2-(trifluoromethyl)benzyl]-1H-indazol-5-yl}methylidene)-2,4-dioxo-1,3-thiazolidin-3-yl]-3-pyridin-2-ylpropanoate] had an EC50 of 91 nM.

Regarding `O=C1S/C(=C\c2ccc3c(cnn3Cc3ccc(C(F)(F)F)cc3C(F)(F)F)c2)C(=O)N1C1CCNCC1` [Compound 67, (5Z)-5-({1-[2,4-Bis(trifluoromethyl)benzyl]-1H-indazol-5-yl}methylidene)-3-piperidin-4-yl-1,3-thiazolidine-2,4-dione], the half-maximal effective concentration (EC50) stood at 620 nM.

`COc1ccc(Cn2ncc3cc(/C=C4\SC(=O)N(CCN5CC[C@H](O)C5)C4=O)ccc32)c(C(F)(F)F)c1` [Compound 14, (5Z)-3-{2-[(3S)-3-Hydroxypyrrolidin-1-yl]ethyl}-5-({1-[4-methoxy-2-(trifluoromethyl)benzyl]-1H-indazol-5-yl}methylidene)-1,3-thiazolidine-2,4-dione] came in with an EC50 of 100 nM.

`CN(C)CCCN1C(=O)S/C(=C\c2ccc3c(ccn3Cc3ccc(Cl)cc3C(F)(F)F)c2)C1=O` [Compound 244, (5Z)-5-[(1-{[4-Chloro-2-(trifluoromethyl)phenyl]methyl}-1H-indol-5-yl)methylidene]-3-[3-(dimethylamino)-propyl]-1,3-thiazolidine-2,4-dione] displayed a concentration giving a half-maximal response (EC50) of 50 nM.

Regarding `CC(C)NCCN1C(=O)S/C(=C\c2ccc3c(cnn3Cc3ccc(Cl)cc3C(F)(F)F)c2)C1=O` [Compound 48, (5Z)-5-({1-[4-Chloro-2-(trifluoromethyl)benzyl]-1H-indazol-5-yl}methylidene)-3-{2-[(1-methylethyl)amino]ethyl}-1,3-thiazolidine-2,4-dione], the 50% effective concentration (EC50) worked out at 19 nM.

Regarding `COCCN1C(=O)S/C(=C\c2ccc3c(cnn3Cc3ccc(Cl)cc3C(F)(F)F)c2)C1=O` [Compound 123, (5Z)-5-({1-[4-Chloro-2-(trifluoromethyl)benzyl]-1H-indazol-5-yl}methylidene)-3-(2-methoxyethyl)-1,3-thiazolidine-2,4-dione], the concentration for a half-maximal effect (EC50) came out at 45 nM.

`O=C1S/C(=C\c2ccc3c(cnn3Cc3ccc(Cl)cc3C(F)(F)F)c2)C(=O)N1C1(C(=O)O)CCOCC1` [Compound 227, 4-[(5Z)-5-({1-[4-Chloro-2-(trifluoromethyl)benzyl]-1H-indazol-5-yl}methylidene)-2,4-dioxo-1,3-thiazolidin-3-yl]etrahydro-2H-pyran-4-carboxylic acid] yielded an EC50 of 53 nM.

With `O=C1S/C(=C\c2ccc3c(cnn3Cc3ccc(Cl)cc3C(F)(F)F)c2)C(=O)N1[C@@H]1CN2CCC1CC2` [Compound 132, (5Z)-3-[(3S)-1-Azabicyclo[2.2.2]oct-3-yl]-5-({1-[4-chloro-2-(trifluoromethyl)benzyl]-1H-indazol-5-yl}methylidene)-1,3-thiazolidine-2,4-dione], the EC50 is 18 nM.

In the case of `Cc1noc(C)c1S(=O)(=O)NCCN1C(=O)S/C(=C\c2ccc3c(cnn3Cc3ccc(Cl)cc3C(F)(F)F)c2)C1=O` [Compound 419, N-{2-[(5Z)-5-({1-[4-Chloro-2-(trifluoromethyl)benzyl]-1H-indazol-5-yl}methylidene)-2,4-dioxo-1,3-thiazolidin-3-yl]ethyl}-3,5-dimethylisoxazole-4-sulfonamide], the EC50 amounted to 115 nM.

In turn, `CN1CC[C@@H](N2C(=O)S/C(=C\c3ccc4c(cnn4Cc4ccc(Cl)cc4C(F)(F)F)c3)C2=O)C1` [Compound 144, (5Z)-5-({1-[4-Chloro-2-(trifluoromethyl)benzyl]-1H-indazol-5-yl}methylidene)-3-[(3R)-1-methylpyrrolidin-3-yl]-1,3-thiazolidine-2,4-dione] showed a concentration giving a half-maximal response (EC50) of 31 nM.

`O=C1S/C(=C\c2ccc3c(cnn3Cc3ccc(Cl)cc3C(F)(F)F)c2)C(=O)N1CCN1CCC(C(O)CO)CC1` (stereo not shown) [Compound 283, (5Z)-5-({1-[4-Chloro-2-(trifluoromethyl)benzyl]-1H-indazol-5-yl}methylidene)-3-{2-[4-(1,2-dihydroxyethyl)piperidin-1-yl]ethyl}-1,3-thiazolidine-2,4-dione]: it took 527 nM to reach a half-maximal effect (EC50).

Consider `O=C1S/C(=C\c2ccc3c(cnn3Cc3ccc(Cl)cc3C(F)(F)F)c2)C(=O)N1CC1(F)CCN(CCO)CC1` [Compound 305, (5Z)-5-({1-[4-Chloro-2-(trifluoromethyl)benzyl]-1H-indazol-5-yl}methylidene)-3-{[4-fluoro-1-(2-hydroxyethyl)piperidin-4-yl]methyl}-1,3-thiazolidine-2,4-dione], for which the response was half-maximal at 3 nM (EC50).

In turn, `CN(C)CCN1C(=O)S/C(=C\c2ccc3c(cnn3Cc3ccc(C(F)(F)F)cc3C(F)(F)F)c2)C1=O` [Compound 7, (5Z)-5-[(1-{[2,4-Bis(trifluoromethyl)-phenyl]methyl}-1 H-indazol-5-yl)methylidene]-3-[2-(dimethylamino)-ethyl]-1,3-thiazolidine-2,4-dione] showed an EC50 of 33 nM.
